Data: patent US11179433B2, “Mouth freshener” (ARI HEALTHCARE PVT. LTD., priority 2014, dated 2021)

Tests used:
Assay type in all cases: cell-based
Settings in all cases: control, concentration not given, 100 μl per well
[1] = tested on: Staphylococcus aureus; test: Anti-microbial activity, agar well diffusion (zone of inhibition)
Protocol: (§1) The anti-microbial activity and the anti-fungal activity of the mouth freshener composition of the present disclosure was determined by testing it on Escherichia coli, Staphylococcus aureus and Candida albicans as the test microorganisms in comparison with a product presently available in the market (herein forward referred to as Product X), methanol and a standard drug i.e. Chlorhexidine. Escherichia coli, Staphylococcus aureus were grown in Luria-Bertani broth (LB broth) and Candida albicans was grown in Potato Dextrose broth (PD broth) until the growth reached approximately 10^6 cfu (colony forming units) per ml culture was attained. 100 μl of this culture was used for the antimicrobial assay. The 1-4% solution of powder extract was prepared by dissolving the extract in methanol as a solvent and all these solutions were store at 4° C. temperature till further use. Mueller-Hinton (HiMedia) agar plates were used to carry out the testing of the anti-microbial activity and Potato dextrose (Himedia) agar plates were used to carry out the testing of the anti-fungal activity of the mouth freshener composition. The dried surface of a Mueller-Hinton agar plate was inoculated by spreading 100 μl culture suspension on the agar surface. […]

[2] = tested on: Escherichia coli; test: as above
Protocol: as §1

[3] = tested on: Candida albicans; test: Anti-fungal activity, agar well diffusion (zone of inhibition)
Protocol: as §1

[H]/N=C(\N/C(=N/[H])NCCCCCCNC(=N)NC(=N)Nc1ccc(Cl)cc1)Nc1ccc(Cl)cc1 [Chlorhexidine] was tested, and the Zone of inhibition [1] was 18 mm, the Zone of inhibition [2] was 15 mm and the Zone of inhibition [3] was 19 mm.
